Laboratory results published in paper PMC3093745 (ACS Medicinal Chemistry Letters, 2011).

What was measured:
MCF7 cells = test: Propidium iodide staining, cell cycle and cell death in MCF7 cells; format: cell-based; conditions: 1 µM, 48 hours, PI staining
HDAC1 = HDAC1 (Homo sapiens, UniProt Q13547); test: HDAC1 in vitro homogeneous fluorogenic deacetylase assay; format: biochemical; conditions: read-out: IC50 HDAC1; SD in parentheses; duplicate; substrate MAZ1600 21 µM
HDAC3 = HDAC3 (Homo sapiens, UniProt O15379); test: HDAC3 in vitro homogeneous fluorogenic deacetylase assay; format: biochemical; conditions: read-out: IC50 HDAC3; SD in parentheses; duplicate; substrate MAZ1600 9 µM
Chain of HDAC3 (O15379 whole entry): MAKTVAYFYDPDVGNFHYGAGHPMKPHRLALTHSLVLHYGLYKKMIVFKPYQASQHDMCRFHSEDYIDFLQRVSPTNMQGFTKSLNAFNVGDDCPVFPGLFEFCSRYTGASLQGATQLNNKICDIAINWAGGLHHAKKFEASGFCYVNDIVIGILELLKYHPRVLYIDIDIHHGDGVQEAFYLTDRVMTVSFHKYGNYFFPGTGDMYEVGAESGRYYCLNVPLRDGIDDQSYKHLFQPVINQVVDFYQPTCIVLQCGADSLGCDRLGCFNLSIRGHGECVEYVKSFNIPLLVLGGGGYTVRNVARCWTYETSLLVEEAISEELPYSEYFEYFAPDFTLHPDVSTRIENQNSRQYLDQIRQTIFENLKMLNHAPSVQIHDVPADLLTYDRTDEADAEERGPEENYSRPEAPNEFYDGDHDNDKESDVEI
Chain of HDAC3 (Q9Y618 395-489 partner limits assumed): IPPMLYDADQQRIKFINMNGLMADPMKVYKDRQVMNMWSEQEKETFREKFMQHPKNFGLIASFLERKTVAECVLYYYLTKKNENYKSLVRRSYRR

HDAC6 = molecular target: T1, HDAC6 (Homo sapiens, UniProt Q9UBN7); test: HDAC6 in vitro homogeneous fluorogenic deacetylase assay; format: biochemical; conditions: read-out: IC50 HDAC6; SD in parentheses; duplicate; substrate MAZ1600 9 µM
T1 sequence (Q9UBN7 1-1215): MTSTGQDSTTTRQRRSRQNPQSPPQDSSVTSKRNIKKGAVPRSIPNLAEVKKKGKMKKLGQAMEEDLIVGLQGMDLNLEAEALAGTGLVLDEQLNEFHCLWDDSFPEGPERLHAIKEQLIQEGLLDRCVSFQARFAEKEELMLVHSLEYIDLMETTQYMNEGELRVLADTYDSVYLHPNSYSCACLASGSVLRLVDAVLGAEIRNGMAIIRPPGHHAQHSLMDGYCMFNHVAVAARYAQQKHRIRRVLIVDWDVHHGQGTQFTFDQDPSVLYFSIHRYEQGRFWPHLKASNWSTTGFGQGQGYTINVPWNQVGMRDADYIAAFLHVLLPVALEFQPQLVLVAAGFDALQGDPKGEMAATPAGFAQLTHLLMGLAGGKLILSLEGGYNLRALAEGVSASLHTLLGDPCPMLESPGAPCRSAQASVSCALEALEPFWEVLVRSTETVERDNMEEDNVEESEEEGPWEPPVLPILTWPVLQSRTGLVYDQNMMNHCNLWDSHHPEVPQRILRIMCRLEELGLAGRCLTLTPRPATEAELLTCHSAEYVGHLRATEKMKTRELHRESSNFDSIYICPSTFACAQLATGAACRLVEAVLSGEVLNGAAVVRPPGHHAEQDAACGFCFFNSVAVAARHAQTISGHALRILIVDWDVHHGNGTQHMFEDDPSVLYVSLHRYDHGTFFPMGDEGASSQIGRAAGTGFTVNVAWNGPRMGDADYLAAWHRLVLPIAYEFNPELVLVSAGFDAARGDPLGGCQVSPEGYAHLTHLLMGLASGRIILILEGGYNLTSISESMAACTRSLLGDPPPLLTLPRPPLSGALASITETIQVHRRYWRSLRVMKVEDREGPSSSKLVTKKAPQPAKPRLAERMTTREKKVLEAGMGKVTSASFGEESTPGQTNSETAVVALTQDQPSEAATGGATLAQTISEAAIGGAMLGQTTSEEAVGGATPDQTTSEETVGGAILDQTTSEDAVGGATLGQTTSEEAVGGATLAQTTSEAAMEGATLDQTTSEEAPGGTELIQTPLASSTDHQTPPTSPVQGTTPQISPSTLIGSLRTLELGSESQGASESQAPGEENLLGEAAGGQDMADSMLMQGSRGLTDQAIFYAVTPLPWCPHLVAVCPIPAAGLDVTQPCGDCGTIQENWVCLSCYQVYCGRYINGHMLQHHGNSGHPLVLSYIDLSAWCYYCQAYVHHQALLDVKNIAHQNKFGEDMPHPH

HDAC2 = HDAC2 (Homo sapiens, UniProt Q92769); test: HDAC2 in vitro homogeneous fluorogenic deacetylase assay; format: biochemical; conditions: read-out: IC50 HDAC2; SD in parentheses; duplicate; substrate MAZ1600 22 µM
Chain of HDAC2 (Q92769 whole entry): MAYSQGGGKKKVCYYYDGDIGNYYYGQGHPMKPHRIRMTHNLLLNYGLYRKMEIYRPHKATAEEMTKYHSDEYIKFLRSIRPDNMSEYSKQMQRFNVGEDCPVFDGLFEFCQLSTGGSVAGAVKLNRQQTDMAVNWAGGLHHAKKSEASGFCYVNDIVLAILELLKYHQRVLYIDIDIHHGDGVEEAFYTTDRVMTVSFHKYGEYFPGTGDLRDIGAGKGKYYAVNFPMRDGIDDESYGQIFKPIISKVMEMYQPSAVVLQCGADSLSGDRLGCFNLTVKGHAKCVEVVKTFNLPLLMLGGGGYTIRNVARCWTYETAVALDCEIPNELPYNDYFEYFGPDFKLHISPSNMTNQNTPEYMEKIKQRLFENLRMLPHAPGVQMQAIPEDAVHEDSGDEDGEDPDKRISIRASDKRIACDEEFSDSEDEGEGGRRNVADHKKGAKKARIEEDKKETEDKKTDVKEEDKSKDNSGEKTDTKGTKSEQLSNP

Chain of HDAC1 (Q13547 whole entry): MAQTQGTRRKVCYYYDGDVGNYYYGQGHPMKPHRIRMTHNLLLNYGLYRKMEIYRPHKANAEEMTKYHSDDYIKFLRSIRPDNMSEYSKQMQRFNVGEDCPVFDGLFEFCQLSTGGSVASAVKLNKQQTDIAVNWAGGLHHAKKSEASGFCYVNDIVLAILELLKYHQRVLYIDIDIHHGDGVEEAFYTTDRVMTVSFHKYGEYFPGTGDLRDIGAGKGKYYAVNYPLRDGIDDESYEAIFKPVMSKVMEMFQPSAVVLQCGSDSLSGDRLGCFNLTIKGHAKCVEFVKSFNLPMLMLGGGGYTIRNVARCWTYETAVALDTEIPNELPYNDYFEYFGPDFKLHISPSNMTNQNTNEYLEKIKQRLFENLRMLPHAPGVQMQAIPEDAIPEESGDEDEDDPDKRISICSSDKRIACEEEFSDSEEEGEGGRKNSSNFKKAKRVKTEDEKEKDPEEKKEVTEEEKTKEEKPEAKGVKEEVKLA

O=C(CCCCCCC(=O)N[c-]1cccc1)NO.[Fe+2].c1cc[cH-]c1 [Compound 7, N^1-Hydroxy-N^8-ferrocenyloctanediamide]
cell cycle arrest and cell death (MCF7 cells): induced cell cycle arrest and cell death
IC50 (HDAC1): 11 nM
IC50 (HDAC3): 18 nM
IC50 (HDAC6): 0.8 nM
IC50 (HDAC2): 11 nM
